Here are results for three molecules from ChEMBL document CHEMBL1201862, “PubChem BioAssay data set” (2004).

Common to all, as to test: NCI tumour cell line growth inhibition, 48 h
The test system of test [1] is CCRF-CEM.
Test [2] has as its system NCI-H522.
The subject of test [3] is HL-60.
The test system of test [4] is SN12C.
Test [5] relates to A549.
The test system of test [6] is NCI-H460.
Test [7] deals with SK-OV-3.
The subject of test [8] is 786-0.
In test [9] the test system is BT-549.
The subject of test [10] is K562.
Test [11] has as its system OVCAR-3.
Test [12] has as its system OVCAR-4.
The test system of test [13] is UACC-257.
In test [14] the test system is NCI-H226.
Test [15] has as its system EKVX.
Test [16] relates to MDA-MB-231.
In test [17] the test system is RPMI-8226.
The subject of test [18] is U-251.
In test [19] the test system is PC-3.
In test [20] the test system is MDA-MB-435.

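Assay format: 96-well plates, 48-hour exposure. GI50 marks 50% less growth.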 The source made the active and inactive calls. Cut-off read from the data, not from the text of the source: active = GI50 up to about 1.1 µM and inactive = higher. Where only a bound is given, the exact number is not on record here.

As for `COC(=O)C1C(O)C(C)C(O)C(C)(O)C=C(C)C2=C3C(=C(C)C(=O)c4c(O)c(c(C)c(OC(C)=O)c43)NC(=O)C(C)=C/C=C\C(C)(O)C(O)C(C)C1O)OCO2` (stereo not given), the GI50 is 49.8 µM (inactive) in test [1]; 88.3 µM (inactive) in [2]; 25.2 µM (inactive) in test [3]; 94 µM (inactive) in [4]; 88.9 µM (inactive) in test [5]; > 100 µM (inactive) in test [6]. Further, the GI50 is > 100 µM (inactive) in test [7]; > 100 µM (inactive) in test [8]; > 100 µM (inactive) in test [9]; 81.1 µM (inactive) in test [10]; 25.7 µM (inactive) in test [11]; 56.4 µM (inactive) in test [12]. Further, the GI50 was 28.9 µM (inactive) in test [13]; > 100 µM (inactive) in test [14]; > 100 µM (inactive) in [15]; 32.5 µM (inactive) in test [16]; 45.4 µM (inactive) in test [17]; > 100 µM (inactive) in test [18]. The figures for the GI50 in [19] and in test [20] were 32.5 µM (inactive) and 33.9 µM (inactive), respectively.
On to `CC1CC[C@@]2(OC1)OC1C[C@H]3[C@@H]4CC[C@H]5CC(OC6OC(CO)C(O)C(OC7OC(CO)C(OC8OC(CO)C(O)C(OC9OC(CO)C(O)C(O)C9O)C8OC8OC(CO)C(O)C(O)C8O)C(O)C7O)C6O)[C@H](O)CC5(C)[C@H]4CCC3(C)C1[C@@H]2C` (stereo not given in full), for which the GI50 in test [1] was 2.08 µM (inactive); in test [2] it was 1.66 µM (inactive); in [3], 2.57 µM (inactive); in test [4] it was 2.49 µM (inactive); in [5], 9.4 µM (inactive); in [6], 7.06 µM (inactive). For the same molecule, the GI50 in test [7] is 6.95 µM (inactive); in test [8], 1.88 µM (inactive); in test [9] it was 4.37 µM (inactive); in [10], 3.37 µM (inactive); in test [11], 0.9 µM (active); in test [12], 2.4 µM (inactive). The GI50 in test [13] is 8.75 µM (inactive); in test [14], 6.53 µM (inactive); in test [15], 4.15 µM (inactive); in [16] it was 1.31 µM (inactive); in test [17] it was 2.55 µM (inactive); in test [18], 2.7 µM (inactive). Besides, the GI50 in test [19] is 1.29 µM (inactive); in test [20] it was 6.59 µM (inactive).
Turning to `COC(=O)c1cc(C#N)[nH]c1-c1ccc(Br)s1`, the GI50 is 21.1 µM (inactive) in [1]; 7.03 µM (inactive) in test [2]; 11.5 µM (inactive) in test [3]; 13.1 µM (inactive) in test [4]; 8.55 µM (inactive) in [5]; 17.6 µM (inactive) in test [6]. Further, the GI50 was 11.6 µM (inactive) in test [7]; 14.5 µM (inactive) in test [8]; 10.9 µM (inactive) in test [9]; > 30.8 µM (inactive) in [10]; 3.58 µM (inactive) in test [11]; 10.1 µM (inactive) in test [12]. The GI50 in test [13] was 9.4 µM (inactive); in [14] it was 8.55 µM (inactive); in test [15], 3.97 µM (inactive); in test [16], 14.5 µM (inactive); in test [17] it was 5.08 µM (inactive); in test [18], 10.4 µM (inactive). Also, the GI50 in [19] is 1.75 µM (inactive); in [20], 13.5 µM (inactive).
